Test results taken from patent publication US11905265B1, “3,4-dimethoxy-n′-(2-(5-phenyl-1,3,4-oxadiazol-2ylthio)acetoxy)benzimidamide as an antimicrobial compound” (KING FAISAL UNIVERSITY, priority 2023, dated 2024).

Columns and labels:
Format in all cases: cell-based
[1] = system: Chrysosporium keratinophilum; assay: Agar plate disc-diffusion, antifungal activity (inhibition zone); details: Sabouraud's dextrose agar, 72 hours
Method: (§1) The agar plate disc-diffusion method was applied. […] The discs were then placed onto the surface of agar plates (nutrient agar for bacteria and Sabouraud's dextrose agar for fungi) seeded with the test organism. Each plate contained 15 mL of the agar medium, previously seeded with 0.2 mL of the broth culture of each organism pregrown for 18 hours. The plates were incubated at 37° C. for 48 hours, and 72 hours for fungi. The inhibition zones were measured in milimeters. Discs impregnated with DMSO were used as a control, and its inhibition zone was subtracted from the tested compound actual inhibition zone.
(§2) The antibacterial activity was screened against gram positive bacteria namely Bacillus cereus and Staphylococcus aureus and gram-negative bacterial strains namely Pseudomonas aeruginosa and Escherichia coli, while the antifungal activity was screened against Aspergillus flavus and Chrysosporium keratinophilum as shown in Table 1 and 2.

Aspergillus flavus = assay: as above; details: Sabouraud's dextrose agar, 72 hours
Method: as §1, §2

Bacillus cereus = assay: Agar plate disc-diffusion, antibacterial activity (inhibition zone); details: nutrient agar, 37° C., 48 hours
Method: as §1, §2

Escherichia coli = assay: as above; details: nutrient agar, 37° C., 48 hours
Method: as §1, §2

Pseudomonas aeruginosa = assay: as above; details: nutrient agar, 37° C., 48 hours
Method: as §1, §2

Staphylococcus aureus = assay: as above; details: nutrient agar, 37° C., 48 hours
Method: as §1, §2

[2] = A = concentration of comp. = 10,000 uL
[3] = B = concentration of comp. = 30,000 uL
[4] = C = concentration of comp. = 50,000 uL

Structure (SMILES) | inhibition zone [1, 2] [mm] | inhibition zone [1, 3] [mm] | inhibition zone [1, 4] [mm] | inhibition zone (Aspergillus flavus; [2]) [mm] | inhibition zone (Aspergillus flavus; [3]) [mm] | inhibition zone (Aspergillus flavus; [4]) [mm] | inhibition zone (Bacillus cereus; [2]) [mm] | inhibition zone (Bacillus cereus; [3]) [mm] | inhibition zone (Bacillus cereus; [4]) [mm] | inhibition zone (Escherichia coli; [2]) [mm] | inhibition zone (Escherichia coli; [3]) [mm] | inhibition zone (Escherichia coli; [4]) [mm] | inhibition zone (Pseudomonas aeruginosa; [2]) [mm] | inhibition zone (Pseudomonas aeruginosa; [3]) [mm] | inhibition zone (Pseudomonas aeruginosa; [4]) [mm] | inhibition zone (Staphylococcus aureus; [2]) [mm] | inhibition zone (Staphylococcus aureus; [3]) [mm] | inhibition zone (Staphylococcus aureus; [4]) [mm]
O=C(O)c1cn(C2CC2)c2cc(N3CCNCC3)c(F)cc2c1=O [Cip., ciprofloxacin] | 29 | 30 | 53 | 29 | 30 | 42 | 29 | 30 | 42 | 30 | 39 | 60 | 29 | 30 | 53 | 43 | 44 | 53
COc1ccc(/C(N)=N/OC(=O)CSc2nnc(-c3ccccc3)o2)cc1OC [Compound 3, 3,4-dimethoxy-N′-(2-(5-phenyl-1,3,4-oxadiazol-2-ylthio)acetoxy)benzimidamide] | 24 | 26 | 40 | 23 | 27 | 40 | 25 | 29 | 41 | 26 | 35 | 50 | 20 | 24 | 37 | 24 | 27 | 43
